Data set [1] deals with Differentiated U937 cells. Put plainly: (l) Cell viability: MTT assay. In kind it is cell-based, human. The settings on record: 1 μg/mL. The method in brief:
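Differentiated U937 cells were exposed to compound at 1 or 10 μg/mL either 4 h in 5% FCS RPMI1640 or 24 h in 10% FCS RPMI1640, then given MTT for 1 h, DMSO-solubilised and read at 550 nm. Percent viability loss versus 0.5% DMSO vehicle; apparent gains appear negative.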
For orientation: Tetrazolium dyes change colour on reduction, which living cells bring about.

In the next data set the target is GSK 3α (Homo sapiens (Human), UniProt P49840). The data set can be described thus: GSK 3α enzyme inhibition (FRET, Z-LYTE), Method 2. The settings on record: Method 2, different laboratory (Table 4a2); read-out: IC50 Values for Enzyme Inhibition GSK3α. In kind it is biochemical. As to the method: (§1) The enzyme inhibitory activities of compounds disclosed herein are determined by FRET using synthetic peptides labelled with both donor and acceptor fluorophores (Z-LYTE, Invitrogen Ltd., Paisley, UK).
The inhibitory activities of compounds of the invention against the GSK 3α enzyme isoform (Invitrogen), are evaluated by determining the level of activation/phosphorylation of the target peptide. The GSK3-α protein (500 ng/mL, 2.5 μL) is mixed with the test compound (2.5 μL at either 4 μg/mL, 0.4 μg/mL, 0.04 μg/mL, or 0.004 μg/mL) for 2 hr at RT. The FRET peptide (8 μM, 2.5 μL), which is a phosphorylation target for GSK3α, and ATP (40 μM, 2.5 μL) are then added to the enzyme/compound mixture and the resulting mixture incubated for 1 hr. Development reagent (protease, 5 μL) is added for 1 hr prior to detection in a fluorescence microplate reader (Varioskan® Flash, ThermoFisher Scientific).
(§2) In all cases, the site-specific protease cleaves non-phosphorylated peptide only and eliminates the FRET signal. Phosphorylation levels of each reaction are calculated using the ratio of coumarin emission (donor) over fluorescein emission (acceptor), for which high ratios indicate high phosphorylation and low ratios indicate low phosphorylation levels.

The target of data set [2] is T1, p38 MAPKα isoform (MAPK14) (Homo sapiens (Human), UniProt Q16539). Put plainly: p38 MAPKα enzyme inhibition (FRET, Z-LYTE), Method 1. In kind it is biochemical. The settings on record: Method 1 (Table 4a1).
Data set [3] concerns Intestinal mucosa biopsies from the inflamed regions of the colon of IBD patients. Put plainly: (h) Human biopsy assay (cytokine release). In kind it is cell-based. As to the method:
Intestinal mucosa biopsies are obtained from the inflamed regions of the colon of IBD patients. The biopsy material is cut into small pieces (2-3 mm) and placed on steel grids in an organ culture chamber at 37° C. in a 5% CO2/95% O2 atmosphere in serum-free media. DMSO control or test compounds at the desired concentration are added to the tissue and incubated for 24 hr in the organ culture chamber. The supernatant is harvested for determination of IL-6, IL-8, […] and TNFα levels by R&D ELISA.

Data set [4] has as its target T1, p38 MAPKα isoform (MAPK14). The data set can be described thus: p38 MAPKα enzyme inhibition (FRET, Z-LYTE), Method 2. In kind it is biochemical. The settings on record: Method 2, different laboratory (Table 4a2). As for the experimental part:
as §1
The inhibitory activities of test compounds against the p38 MAPKα isoform (MAPK14: Invitrogen), are evaluated indirectly by determining the level of activation/phosphorylation of the down-stream molecule, MAPKAP-K2. The p38 MAPKα protein (80 ng/mL, 2.5 μL) is mixed with the test compound (2.5 μL of either 4 μg/mL, 0.4 μg/mL, 0.04 μg/mL or 0.004 μg/mL) for 2 hr at RT. […] The mixture is incubated for 1 hr at RT. Development reagent (protease, 5 μL) is added for 1 hr prior to detection in a fluorescence microplate reader (Varioskan® Flash, ThermoFisher Scientific).
as §2

A further data set deals with BDF1 mice. The data set can be described thus: (C) TNBS-induced colitis in mice. The data set is classed as in vivo, mouse. More on the design: TNBS Ulcer grade / TNBS LP inflammation: scale not given here. The settings on record: 2 days; for TNBS LP inflammation / TNBS Ulcer grade: mice. As for the experimental part:
Non-fasted, 10-12 week old, male BDF1 mice are dosed by oral gavage twice daily with either vehicle (5 mL/kg), reference item (Budesonide 2.5 mg/kg) or test compound (1, 5 or 50 mg/kg) one day before (Day −1) stimulation of the inflammatory response by treatment with 2,4,6-trinitrobenzenesulphonic acid (TNBS) (15 mg/mL in 50% ethanol/50% saline). On Day 0 of the study TNBS (200 μL) is administered intra-colonically via a plastic catheter followed by BID dosing of the vehicle, reference or test compound for 2 or 4 days. During the study animals are weighed every day and stool observations are made and recorded as a score, based on stool consistency. At the time of sacrifice on Day 2 (or Day 4) the large intestine is removed and the length and weight recorded. Sections of the colon are taken for either MPO analysis to determine neutrophil infiltration or for histopathology involving scoring to determine disease severity.

T1 sequence (Q16539 whole entry, canonical isoform): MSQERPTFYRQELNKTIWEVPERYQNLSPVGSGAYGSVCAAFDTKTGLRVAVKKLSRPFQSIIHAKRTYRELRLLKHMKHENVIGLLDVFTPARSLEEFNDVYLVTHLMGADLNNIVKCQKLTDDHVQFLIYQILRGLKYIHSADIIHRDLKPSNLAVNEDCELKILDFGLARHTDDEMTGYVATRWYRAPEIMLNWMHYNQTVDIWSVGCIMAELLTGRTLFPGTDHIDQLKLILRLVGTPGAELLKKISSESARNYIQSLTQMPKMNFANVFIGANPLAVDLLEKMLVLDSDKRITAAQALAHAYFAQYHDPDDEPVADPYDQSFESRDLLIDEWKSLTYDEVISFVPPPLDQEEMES
Sequence of GSK 3α (P49840 whole entry, canonical isoform): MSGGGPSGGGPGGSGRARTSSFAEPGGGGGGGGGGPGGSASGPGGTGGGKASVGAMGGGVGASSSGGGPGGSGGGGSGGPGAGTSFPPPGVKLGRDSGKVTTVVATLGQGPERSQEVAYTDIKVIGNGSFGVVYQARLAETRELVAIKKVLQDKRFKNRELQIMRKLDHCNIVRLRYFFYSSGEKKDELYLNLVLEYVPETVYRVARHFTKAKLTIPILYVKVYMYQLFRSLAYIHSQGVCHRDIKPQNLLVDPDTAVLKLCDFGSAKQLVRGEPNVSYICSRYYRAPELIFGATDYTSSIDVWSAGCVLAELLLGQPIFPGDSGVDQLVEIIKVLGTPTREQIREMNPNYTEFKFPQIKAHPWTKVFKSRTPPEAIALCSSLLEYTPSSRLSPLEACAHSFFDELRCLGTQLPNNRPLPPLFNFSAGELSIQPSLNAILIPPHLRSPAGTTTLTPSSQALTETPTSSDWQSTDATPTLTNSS

What is called IC50 is the concentration needed to halve the response being measured. In the case of `COc1cc(C(=O)NCCN2CCOCC2)ccc1Nc1nccc(Oc2ccc(NC(=O)Nc3cc(C(C)C)nn3-c3ccc(C)cc3)c3ccccc23)n1` [Example 36, 4-((4-((4-(3-(3-isopropyl-1-(p-tolyl)-1H-pyrazol-5-yl)ureido)naphthalen-1-yl)oxy)pyrimidin-2-yl)amino)-3-methoxy-N-(2-morpholinoethyl)benzamide], in data set [1], the “Cell viability at time point in d-U937 cells 4 h” value is “−ve (−ve and +ve indicate that the value is below and above respectively, the no significant effect threshold, defined as 30% inhibition at 1 μg/mL at the time point indicated.)”; the “Cell viability at time point in d-U937 cells 24 h” value was “−ve (−ve and +ve indicate that the value is below and above respectively, the no significant effect threshold, defined as 30% inhibition at 1 μg/mL at the time point indicated.)”. Further, the IC50 on GSK 3α worked out at 13.2 µM. Further, the IC50 in data set [2] came to 13 nM.

In the case of `CCc1cc(NC(=O)Nc2ccc(Oc3ccnc(Nc4cc(OC)cc(C(=O)NCCN5CCOCC5)c4)n3)c3ccccc23)n(-c2ccc(C)cc2)n1` [Example 49, 3-((4-((4-(3-(3-ethyl-1-(p-tolyl)-1H-pyrazol-5-yl)ureido)naphthalen-1-yl)oxy)pyrimidin-2-yl)amino)-5-methoxy-N-(2-morpholinoethyl)benzamide], in data set [1], the “Cell viability at time point in d-U937 cells 4 h” value was “−ve (−ve and +ve indicate that the value is below and above respectively, the no significant effect threshold, defined as 30% inhibition at 1 μg/mL at the time point indicated.)”; the “Cell viability at time point in d-U937 cells 24 h” value is “−ve (−ve and +ve indicate that the value is below and above respectively, the no significant effect threshold, defined as 30% inhibition at 1 μg/mL at the time point indicated.)”. Besides, on GSK 3α, the IC50 is 13.5 µM. Inhibition in data set [2] was half-maximal at 2 nM (IC50).

For `C#Cc1cc(Nc2nccc(Oc3ccc(NC(=O)Nc4cc(C(C)C)nn4-c4ccc(C)cc4)c4ccccc34)n2)cc(C(=O)NCCN2CCOCC2)c1` [Example 46, 3-ethynyl-5-((4-((4-(3-(3-isopropyl-1-(p-tolyl)-1H-pyrazol-5-yl)ureido)naphthalen-1-yl)oxy)pyrimidin-2-yl)amino)-N-(2-morpholinoethyl)benzamide], in data set [3] (1 μg/mL, DMSO control 100%), the “Cytokine release from biopsies of UC patients IL-1b release” value turned out to be 35 ± 14%, the “Cytokine release from biopsies of UC patients IL-6 release” value is listed as 44 ± 38% and the “Cytokine release from biopsies of UC patients IL-8 release” value amounted to 49 ± 35%. Further, in data set [3] (added to biopsies in vitro), the “cytokine release from biopsies from ulcerative colitis (UC) patients” value is “markedly reduced IL-1b, IL-6 and IL-8 release”. For the same compound, in data set [1], the “Cell viability at time point in d-U937 cells 4 h” value is “−ve (−ve and +ve indicate that the value is below and above respectively, the no significant effect threshold, defined as 30% inhibition at 1 μg/mL at the time point indicated.)”; the “Cell viability at time point in d-U937 cells 24 h” value is “−ve (−ve and +ve indicate that the value is below and above respectively, the no significant effect threshold, defined as 30% inhibition at 1 μg/mL at the time point indicated.)”. For the same compound, half-maximal inhibition in data set [4] (IC50) required 41 nM. Besides, in the data set on BDF1 mice (TNBS-induced colitis, dosed orally at 5 mg/kg), the “histopathology analysis, in vivo model of colonic inflammation” value is on record as “significant activity”. In the data set with BDF1 mice (1 mg/kg oral BID), the “TNBS LP inflammation” value is reported as 3.1 ± 0.6 and the “TNBS Ulcer grade” value is reported as 3.4 ± 0.6. In the data set on BDF1 mice (5 mg/kg oral BID), the “TNBS LP inflammation” value amounted to 2.0 ± 0.5 and the “TNBS Ulcer grade” value is reported as 2.4 ± 0.6.

Consider `C#Cc1cc(Nc2nccc(Oc3ccc(NC(=O)Nc4cc(C(C)C)nn4-c4ccc(C)cc4)c(Cl)c3Cl)n2)cc(C(N)=O)c1` [Example 89, 3-((4-(2,3-Dichloro-4-(3-(3-isopropyl-1-(p-tolyl)-1H-pyrazol-5-yl)ureido)-phenoxy)pyrimidin-2-yl)amino)-5-ethynylbenzamide], for which the IC50 at GSK 3α came out at 15.3 µM.

`COc1cc(Nc2nccc(Oc3ccc(NC(=O)Nc4cc(C5CC5)nn4-c4ccc(C)cc4)c4ccccc34)n2)cc(C(=O)NCCN2CCOCC2)c1` [Example 50, 3-((4-((4-(3-(3-cyclopropyl-1-(p-tolyl)-1H-pyrazol-5-yl)ureido)naphthalen-1-yl)oxy)pyrimidin-2-yl)amino)-5-methoxy-N-(2-morpholinoethyl)benzamide]: in data set [1], the “Cell viability at time point in d-U937 cells 4 h” value is “−ve (−ve and +ve indicate that the value is below and above respectively, the no significant effect threshold, defined as 30% inhibition at 1 μg/mL at the time point indicated.)”; the “Cell viability at time point in d-U937 cells 24 h” value was “−ve (−ve and +ve indicate that the value is below and above respectively, the no significant effect threshold, defined as 30% inhibition at 1 μg/mL at the time point indicated.)”. At GSK 3α, the IC50 turned out to be 13.3 µM. In data set [2], this compound had an IC50 of 2 nM.

Turning to `CCCC1O[C@@H]2C[C@H]3[C@@H]4CCC5=CC(=O)C=C[C@]5(C)[C@H]4[C@@H](O)C[C@]3(C)[C@]2(C(=O)CO)O1` (some centres unmarked) [Budesonide, reference compound], in the data set with BDF1 mice (2.5 mg/kg oral BID), the “TNBS LP inflammation” value is recorded as 2.5 ± 0.4 and the “TNBS Ulcer grade” value turned out to be 2.9 ± 0.6.

Turning to `C#Cc1cc(Nc2nccc(Oc3ccc(NC(=O)Nc4cc(C(F)(F)C(F)(F)F)nn4-c4ccc(C)cc4)c4ccccc34)n2)cc(C(=O)NCCN2CCOCC2)c1` [Example 74, 3-Ethynyl-N-(2-morpholinoethyl)-5-((4-((4-(3-(3-(perfluoroethyl)-1-(p-tolyl)-1H-pyrazol-5-yl)ureido)naphthalen-1-yl)oxy)pyrimidin-2-yl)amino)benzamide], the IC50 in data set [4] was found to be 1210 nM; on GSK 3α, 12.1 µM.

(Values after patent US9701670B2, “Pyrazolyl-ureas as kinase inhibitors” (RESPIVERT LIMITED, priority 2013, dated 2017).)
